Results as given in ChEMBL document CHEMBL1201862, “PubChem BioAssay data set” (2004).
Each block holds one molecule with its values, some of them ahead of it. Activity calls are given as the source filed them.

Legend:
[1] = target: Peroxisome proliferator-activated receptor gamma/Nuclear receptor coactivator 1 (Homo sapiens, UniProt P37231); test: (§1) TR-FRET dose response biochemical High Throughput Screening assay for agonists of the steroid receptor coactivator 1 (SRC-1) recruitment by the peroxisome proliferator-activated receptor gamma (PPAR gamma): non-selective agonists. [Related pubchem assays (depositor defined):AID1300, AID1808, AID504735, AID631]; type: protein assay
Peroxisome proliferator-activated receptor gamma/Nuclear receptor coactivator 1, sequence (P37231 whole entry): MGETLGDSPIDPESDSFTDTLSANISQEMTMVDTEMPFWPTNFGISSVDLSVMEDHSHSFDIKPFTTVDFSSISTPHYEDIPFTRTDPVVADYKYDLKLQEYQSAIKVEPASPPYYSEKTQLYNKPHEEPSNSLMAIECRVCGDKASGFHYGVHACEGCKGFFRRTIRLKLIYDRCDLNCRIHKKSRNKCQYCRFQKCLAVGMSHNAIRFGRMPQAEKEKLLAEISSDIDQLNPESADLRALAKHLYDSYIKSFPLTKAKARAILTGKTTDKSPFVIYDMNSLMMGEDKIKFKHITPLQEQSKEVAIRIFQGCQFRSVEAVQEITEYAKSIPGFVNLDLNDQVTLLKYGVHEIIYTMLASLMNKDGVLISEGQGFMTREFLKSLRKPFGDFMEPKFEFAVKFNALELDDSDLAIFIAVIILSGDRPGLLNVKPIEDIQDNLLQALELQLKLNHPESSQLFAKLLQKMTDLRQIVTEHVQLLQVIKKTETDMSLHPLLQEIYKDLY
Peroxisome proliferator-activated receptor gamma/Nuclear receptor coactivator 1, sequence (Q15788 whole entry, further chain): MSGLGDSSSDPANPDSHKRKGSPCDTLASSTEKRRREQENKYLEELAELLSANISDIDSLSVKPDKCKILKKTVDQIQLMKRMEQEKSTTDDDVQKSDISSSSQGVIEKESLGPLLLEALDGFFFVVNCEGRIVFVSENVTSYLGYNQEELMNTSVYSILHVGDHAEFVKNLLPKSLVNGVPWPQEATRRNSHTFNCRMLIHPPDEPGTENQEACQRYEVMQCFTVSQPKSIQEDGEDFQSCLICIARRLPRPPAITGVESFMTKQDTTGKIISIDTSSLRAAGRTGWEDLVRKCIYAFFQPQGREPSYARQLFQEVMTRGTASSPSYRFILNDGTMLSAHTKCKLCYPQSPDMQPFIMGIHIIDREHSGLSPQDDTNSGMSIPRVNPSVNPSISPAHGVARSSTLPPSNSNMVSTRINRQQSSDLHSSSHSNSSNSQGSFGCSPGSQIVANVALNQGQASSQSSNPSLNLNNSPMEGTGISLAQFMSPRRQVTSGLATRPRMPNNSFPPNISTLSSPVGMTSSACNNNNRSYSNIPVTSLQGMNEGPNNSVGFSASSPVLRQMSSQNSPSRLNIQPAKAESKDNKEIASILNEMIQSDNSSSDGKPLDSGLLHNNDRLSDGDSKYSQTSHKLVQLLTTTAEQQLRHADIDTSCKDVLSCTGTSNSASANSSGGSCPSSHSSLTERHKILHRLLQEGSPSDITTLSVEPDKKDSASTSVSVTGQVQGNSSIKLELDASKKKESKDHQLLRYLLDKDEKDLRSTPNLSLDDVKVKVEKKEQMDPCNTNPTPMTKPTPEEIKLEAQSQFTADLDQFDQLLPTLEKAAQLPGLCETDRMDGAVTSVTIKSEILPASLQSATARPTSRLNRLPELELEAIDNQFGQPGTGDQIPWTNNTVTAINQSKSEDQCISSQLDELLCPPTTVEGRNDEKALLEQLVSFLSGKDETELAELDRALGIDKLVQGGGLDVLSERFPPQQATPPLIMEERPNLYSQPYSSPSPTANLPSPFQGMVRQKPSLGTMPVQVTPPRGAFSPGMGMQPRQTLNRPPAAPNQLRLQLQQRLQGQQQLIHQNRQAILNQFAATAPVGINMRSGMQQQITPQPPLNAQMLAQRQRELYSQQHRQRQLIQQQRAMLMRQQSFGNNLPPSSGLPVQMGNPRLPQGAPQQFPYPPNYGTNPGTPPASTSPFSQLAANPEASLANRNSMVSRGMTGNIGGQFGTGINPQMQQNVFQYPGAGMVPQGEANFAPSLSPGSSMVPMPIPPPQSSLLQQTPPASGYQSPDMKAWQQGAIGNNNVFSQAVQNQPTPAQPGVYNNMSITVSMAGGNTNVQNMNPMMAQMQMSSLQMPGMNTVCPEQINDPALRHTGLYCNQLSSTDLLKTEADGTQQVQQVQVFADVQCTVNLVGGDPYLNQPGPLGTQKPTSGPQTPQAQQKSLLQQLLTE

[2] = control 3'UTR Renilla luciferase suppression, dose response, counter-screen for Shn3 inhibitor project, cell-based, Clone20-Shn3RL, cherry-picked (AID 624133); type: functional
[3] = target: T1, Apoptotic protease-activating factor 1 (Homo sapiens, UniProt O14727); type: functional
T1 sequence (O14727 whole entry): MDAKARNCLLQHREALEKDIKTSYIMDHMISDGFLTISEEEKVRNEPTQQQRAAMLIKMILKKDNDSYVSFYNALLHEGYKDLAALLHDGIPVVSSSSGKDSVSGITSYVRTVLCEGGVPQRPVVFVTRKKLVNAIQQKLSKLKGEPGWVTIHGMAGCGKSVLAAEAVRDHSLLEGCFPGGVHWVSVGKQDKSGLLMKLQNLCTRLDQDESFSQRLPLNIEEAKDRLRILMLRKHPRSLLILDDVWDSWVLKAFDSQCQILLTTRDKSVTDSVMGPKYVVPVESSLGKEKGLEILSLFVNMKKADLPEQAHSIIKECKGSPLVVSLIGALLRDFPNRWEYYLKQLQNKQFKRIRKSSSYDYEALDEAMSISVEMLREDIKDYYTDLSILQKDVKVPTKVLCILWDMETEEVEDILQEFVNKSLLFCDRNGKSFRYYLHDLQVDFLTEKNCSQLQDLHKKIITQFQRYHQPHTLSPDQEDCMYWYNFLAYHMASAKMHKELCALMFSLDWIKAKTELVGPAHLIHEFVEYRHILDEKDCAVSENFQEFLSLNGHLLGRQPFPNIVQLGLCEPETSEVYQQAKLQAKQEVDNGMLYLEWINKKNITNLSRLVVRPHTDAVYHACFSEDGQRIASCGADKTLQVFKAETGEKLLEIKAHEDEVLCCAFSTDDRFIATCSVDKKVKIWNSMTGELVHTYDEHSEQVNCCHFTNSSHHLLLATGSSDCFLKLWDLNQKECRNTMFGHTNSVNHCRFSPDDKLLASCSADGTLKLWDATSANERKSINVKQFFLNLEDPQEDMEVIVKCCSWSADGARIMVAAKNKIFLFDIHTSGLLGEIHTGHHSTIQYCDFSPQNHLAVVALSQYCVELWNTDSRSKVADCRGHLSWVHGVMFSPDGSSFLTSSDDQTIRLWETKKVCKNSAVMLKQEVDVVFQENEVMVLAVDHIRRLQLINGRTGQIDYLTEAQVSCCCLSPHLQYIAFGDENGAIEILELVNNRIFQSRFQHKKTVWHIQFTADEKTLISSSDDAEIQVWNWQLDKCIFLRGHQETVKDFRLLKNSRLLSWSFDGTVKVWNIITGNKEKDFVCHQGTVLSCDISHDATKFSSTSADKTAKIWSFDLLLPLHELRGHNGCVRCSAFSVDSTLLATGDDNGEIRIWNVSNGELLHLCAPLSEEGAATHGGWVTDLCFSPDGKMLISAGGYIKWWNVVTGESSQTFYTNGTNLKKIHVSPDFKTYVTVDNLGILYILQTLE

[4] = Shn3 3'UTR reporter inhibitors, dose response, cell-based, Clone20 osteoblasts, firefly luciferase, cherry-picked (AID 624132); type: functional;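 note: firefly luciferase luminescence from reporter carrying the Shn3 3'UTR in osteoblasts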
[5] = target: Peroxisome proliferator-activated receptor gamma/Nuclear receptor coactivator 3 (Homo sapiens, UniProt P37231); test: as §1, with “3 (SRC-3)” for “1 (SRC-1)”, “assays: 1301 (Confirmation screen.), 1048 (Primary screen.)]” for “assays (depositor defined):AID1300, AID1808, AID504735, AID631]”; type: functional
[6] = target: Peroxisome proliferator-activated receptor gamma/Nuclear receptor coactivator 2 (Homo sapiens, UniProt P37231); test: TR-FRET dose response biochemical High Throughput Screening assay for agonists of the steroid receptor coactivator 2 (SRC-2) recruitment by the peroxisome proliferator-activated receptor gamma (PPAR gamma): non-selective agonists. [Related pubchem assays: 1297, 1032 ]; type: functional
Peroxisome proliferator-activated receptor gamma/Nuclear receptor coactivator 2, sequence (P37231 whole entry): as the sequence (P37231 whole entry) above
Peroxisome proliferator-activated receptor gamma/Nuclear receptor coactivator 2, sequence (Q15596 whole entry, further chain): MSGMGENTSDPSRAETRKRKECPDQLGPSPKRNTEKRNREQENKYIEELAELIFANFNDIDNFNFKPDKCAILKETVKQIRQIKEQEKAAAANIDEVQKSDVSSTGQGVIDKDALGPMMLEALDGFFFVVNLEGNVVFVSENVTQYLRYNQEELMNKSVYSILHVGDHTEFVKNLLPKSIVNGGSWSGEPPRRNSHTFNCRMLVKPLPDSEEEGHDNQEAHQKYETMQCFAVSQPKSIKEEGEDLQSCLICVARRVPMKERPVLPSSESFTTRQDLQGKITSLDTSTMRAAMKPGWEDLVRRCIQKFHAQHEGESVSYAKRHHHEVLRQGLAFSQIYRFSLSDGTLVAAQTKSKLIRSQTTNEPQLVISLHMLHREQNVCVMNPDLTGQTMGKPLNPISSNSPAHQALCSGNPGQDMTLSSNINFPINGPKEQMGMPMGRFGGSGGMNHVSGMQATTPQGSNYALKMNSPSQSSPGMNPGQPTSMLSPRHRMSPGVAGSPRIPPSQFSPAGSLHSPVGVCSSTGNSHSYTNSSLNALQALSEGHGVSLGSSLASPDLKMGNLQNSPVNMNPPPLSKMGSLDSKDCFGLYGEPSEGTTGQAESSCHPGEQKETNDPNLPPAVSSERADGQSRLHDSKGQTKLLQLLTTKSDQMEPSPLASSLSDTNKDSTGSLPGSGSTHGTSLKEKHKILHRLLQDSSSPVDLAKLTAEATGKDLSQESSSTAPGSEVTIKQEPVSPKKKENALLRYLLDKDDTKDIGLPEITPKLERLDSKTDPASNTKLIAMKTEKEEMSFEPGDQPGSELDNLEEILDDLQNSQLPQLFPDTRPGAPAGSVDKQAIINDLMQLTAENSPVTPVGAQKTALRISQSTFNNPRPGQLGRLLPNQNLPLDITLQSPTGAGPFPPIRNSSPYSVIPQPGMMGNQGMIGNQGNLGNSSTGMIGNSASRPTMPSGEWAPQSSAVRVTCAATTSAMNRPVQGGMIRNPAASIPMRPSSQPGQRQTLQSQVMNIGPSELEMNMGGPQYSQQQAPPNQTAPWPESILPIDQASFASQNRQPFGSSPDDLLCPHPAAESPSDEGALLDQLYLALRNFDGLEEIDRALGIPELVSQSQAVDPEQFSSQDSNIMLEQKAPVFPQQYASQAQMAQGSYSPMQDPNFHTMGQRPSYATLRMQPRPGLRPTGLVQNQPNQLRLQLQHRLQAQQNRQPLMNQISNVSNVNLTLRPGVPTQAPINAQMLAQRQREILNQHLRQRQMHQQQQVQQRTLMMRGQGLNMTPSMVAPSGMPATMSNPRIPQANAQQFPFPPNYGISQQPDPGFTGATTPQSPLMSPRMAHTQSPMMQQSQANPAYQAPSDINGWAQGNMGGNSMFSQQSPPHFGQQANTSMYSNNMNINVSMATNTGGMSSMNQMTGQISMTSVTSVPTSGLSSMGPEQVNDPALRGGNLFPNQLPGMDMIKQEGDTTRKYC

Cytochrome P450 3A4 = Cytochrome P450 3A4 (Homo sapiens, UniProt P08684);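 note: CYP3A4 tested as one member of a cytochrome P450 panel screen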
Cytochrome P450 3A4, sequence (P08684 whole entry): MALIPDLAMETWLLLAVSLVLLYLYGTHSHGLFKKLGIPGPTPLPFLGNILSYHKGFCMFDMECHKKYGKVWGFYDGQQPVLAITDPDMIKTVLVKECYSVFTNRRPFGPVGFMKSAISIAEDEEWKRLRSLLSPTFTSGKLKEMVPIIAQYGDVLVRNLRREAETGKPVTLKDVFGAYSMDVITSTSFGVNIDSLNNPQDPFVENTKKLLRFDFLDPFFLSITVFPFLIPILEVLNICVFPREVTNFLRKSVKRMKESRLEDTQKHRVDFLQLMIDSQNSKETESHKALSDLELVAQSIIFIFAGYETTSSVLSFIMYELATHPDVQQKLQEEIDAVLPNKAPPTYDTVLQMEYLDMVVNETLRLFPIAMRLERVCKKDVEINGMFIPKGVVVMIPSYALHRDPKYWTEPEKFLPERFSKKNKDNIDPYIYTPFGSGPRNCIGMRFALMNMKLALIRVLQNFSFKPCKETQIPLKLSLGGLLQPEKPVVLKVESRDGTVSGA

Escherichia coli [7] = test: microbe, parasite or virus in culture
Escherichia coli [8] = test: microbe, parasite or virus in culture; remark: listed apart in the source
[9] = target: Voltage-dependent T-type calcium channel subunit alpha-1H (Homo sapiens, UniProt O95180); type: functional;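 note: channel activity triggered by adding a high calcium stimulation buffer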
Coagulation factor XII = target: T2, Coagulation factor XII (Homo sapiens, UniProt P00748); test: FXIIa inhibitor potency, concentration-response, biochemical (AID 716); type: functional
T2 sequence (P00748 whole entry): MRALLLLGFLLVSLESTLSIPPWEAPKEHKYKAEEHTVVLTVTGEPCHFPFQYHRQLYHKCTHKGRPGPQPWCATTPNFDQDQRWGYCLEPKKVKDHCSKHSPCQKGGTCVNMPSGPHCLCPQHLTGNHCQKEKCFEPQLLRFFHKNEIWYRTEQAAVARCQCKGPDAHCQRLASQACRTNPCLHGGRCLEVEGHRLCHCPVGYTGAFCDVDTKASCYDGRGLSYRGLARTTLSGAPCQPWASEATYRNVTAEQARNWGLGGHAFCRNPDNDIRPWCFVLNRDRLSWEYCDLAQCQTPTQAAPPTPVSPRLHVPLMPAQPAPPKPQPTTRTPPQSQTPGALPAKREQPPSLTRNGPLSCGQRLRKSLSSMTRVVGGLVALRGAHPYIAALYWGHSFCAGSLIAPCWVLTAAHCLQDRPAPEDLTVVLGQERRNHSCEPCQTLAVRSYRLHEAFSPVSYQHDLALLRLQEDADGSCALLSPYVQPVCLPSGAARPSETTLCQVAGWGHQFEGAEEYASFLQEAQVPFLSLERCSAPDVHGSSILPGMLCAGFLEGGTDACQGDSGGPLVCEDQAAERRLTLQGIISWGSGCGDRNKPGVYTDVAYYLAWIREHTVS

[10] = target: Alkaline phosphatase, placental type (Homo sapiens, UniProt P05187); test: PLAP enzyme inhibitors, confirmation, biochemical, luminescence (AID 1512); type: functional
Alkaline phosphatase, placental type, sequence (P05187 whole entry): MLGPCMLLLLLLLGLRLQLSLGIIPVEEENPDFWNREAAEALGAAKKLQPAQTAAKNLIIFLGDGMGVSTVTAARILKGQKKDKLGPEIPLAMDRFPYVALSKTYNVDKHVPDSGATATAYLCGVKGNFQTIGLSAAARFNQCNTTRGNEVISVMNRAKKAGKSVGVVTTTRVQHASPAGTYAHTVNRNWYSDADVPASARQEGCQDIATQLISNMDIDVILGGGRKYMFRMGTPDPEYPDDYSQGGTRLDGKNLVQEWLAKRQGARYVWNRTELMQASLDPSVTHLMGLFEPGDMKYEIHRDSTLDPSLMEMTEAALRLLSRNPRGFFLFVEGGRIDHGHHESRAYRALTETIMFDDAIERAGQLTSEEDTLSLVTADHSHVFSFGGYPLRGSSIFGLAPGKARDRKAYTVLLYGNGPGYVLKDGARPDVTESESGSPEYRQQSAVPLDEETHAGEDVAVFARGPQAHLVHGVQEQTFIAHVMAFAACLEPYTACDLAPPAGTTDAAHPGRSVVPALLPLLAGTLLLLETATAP

[11] = target: Glyceraldehyde-3-phosphate dehydrogenase (Homo sapiens, UniProt P04406)
[12] = target: T3, Alkaline phosphatase, tissue-nonspecific isozyme (Homo sapiens, UniProt P05186); test: human TNAP enzyme inhibitors, SAR follow-up, biochemical, luminescent, dose response (AID 1056)
T3 sequence (P05186 whole entry): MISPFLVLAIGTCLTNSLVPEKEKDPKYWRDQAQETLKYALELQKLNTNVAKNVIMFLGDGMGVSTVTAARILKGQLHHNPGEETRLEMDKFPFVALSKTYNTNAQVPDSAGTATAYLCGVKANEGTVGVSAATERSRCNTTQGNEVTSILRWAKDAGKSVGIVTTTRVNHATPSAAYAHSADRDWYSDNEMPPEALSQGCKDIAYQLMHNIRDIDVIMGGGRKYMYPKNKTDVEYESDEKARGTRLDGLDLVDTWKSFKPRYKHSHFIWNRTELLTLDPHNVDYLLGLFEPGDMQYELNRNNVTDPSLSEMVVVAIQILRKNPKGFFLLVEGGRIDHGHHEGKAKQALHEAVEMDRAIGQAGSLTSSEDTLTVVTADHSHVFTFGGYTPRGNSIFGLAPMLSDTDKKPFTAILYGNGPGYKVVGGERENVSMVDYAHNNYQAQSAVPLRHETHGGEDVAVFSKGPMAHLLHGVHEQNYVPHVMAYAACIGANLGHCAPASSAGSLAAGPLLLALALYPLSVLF

Cytochrome P450 2D6 = Cytochrome P450 2D6 (Homo sapiens, UniProt P10635);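 note: CYP2D6 member of a cytochrome P450 panel assay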
[13] = target: T4, Ubiquitin-conjugating enzyme E2 N (Homo sapiens, UniProt P61088); type: functional
T4 sequence (P61088 whole entry): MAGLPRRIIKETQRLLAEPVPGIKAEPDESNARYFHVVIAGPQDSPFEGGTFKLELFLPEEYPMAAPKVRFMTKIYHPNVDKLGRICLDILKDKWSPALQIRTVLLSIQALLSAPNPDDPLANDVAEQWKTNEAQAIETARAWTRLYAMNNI

Bcl-2-related protein A1 = target: T5, Bcl-2-related protein A1 (Mus musculus, UniProt Q07440); type: functional;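 note: confirmatory dose–response counterscreen on Bfl-1, used to check hits from a UBC13 polyubiquitin inhibitor campaign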
T5 sequence (Q07440 whole entry): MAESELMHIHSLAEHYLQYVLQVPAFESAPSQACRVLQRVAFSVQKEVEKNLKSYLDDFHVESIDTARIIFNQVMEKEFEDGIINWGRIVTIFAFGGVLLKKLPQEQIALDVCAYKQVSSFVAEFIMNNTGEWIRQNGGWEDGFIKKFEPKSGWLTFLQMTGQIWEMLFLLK

[14] = target: T4, Ubiquitin-conjugating enzyme E2 N; type: functional; remark: listed apart in the source
[15] = cytotoxicity toward NIH3T3 fibroblasts, dose response, counter-screen, cell-based, ATP luminescence, mouse fibroblasts (AID 2010); type: functional;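 note: cells exposed to compound for about 90 hours before reading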
Beta-galactosidase = Beta-galactosidase (Escherichia coli, UniProt Q8VNN2); test: beta-galactosidase enzyme inhibitors and activators, dose response, artefact control for CCR6 antagonist project, biochemical, E. coli enzyme, set 3 (AID 504712); type: functional
[16] = NIH-3T3 fibroblast cytotoxicity, dose response, cytotoxicity control, cell-based, fluorescence, Alamar Blue, secondary assay (AID 2327); type: functional;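 note: NIH-3T3 mouse fibroblasts cultured with fluconazole at 8 µg/mL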
[17] = inhibitors of intracellular T. cruzi replication, confirmation, NIH3T3 host cells, beta-gal luminescence (AID 2044); type: functional, cell-based;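 note: intracellular parasites grown in NIH/3T3 mouse fibroblasts as host cells; luminescent beta-galactosidase reporter signal from transgenic T. cruzi replicating inside host cells; inhibitors lower the luminescence signal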
[18] = growth suppression of beta-catenin-knockout colon cells, dose response, cell-based, HCT116, human colon tumor (AID 1045); type: functional;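 note: HCT116 colon tumor cells with beta catenin knocked out; cells exposed to compound for 60 hours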
[19] = C. albicans growth with fluconazole, confirmation, fluorescence, retest (AID 2467); type: functional, cell-based
[20] = growth suppression of PTEN-null colon cells, dose response, cell-based, HCT116 PTEN knockout (AID 1047); type: functional;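 note: HCT116 colon tumor cells with PTEN knocked out; cells exposed to compound for 60 hours before readout; potency for loss of cell viability measured by luminescence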
HEK293 [21] = test: cells; type: functional, cell-based; conditions: Homo sapiens
HEK293 [22] = test: cells; type: functional, cell-based; conditions: Homo sapiens; remark: listed apart in the source
HEK293 [23] = test: NOD1 signaling inhibitors, primary screen, cell-based, luminescence, uHTS (AID 1578); type: functional; conditions: Homo sapiens
HEK293 [24] = test: cells; type: functional, cell-based; conditions: Homo sapiens; remark: listed apart in the source
HEK293 [25] = test: NOD2 signaling inhibitors in MDP-stimulated cells, cell-based, uHTS, luminescence (AID 2001); type: functional; conditions: Homo sapiens
[26] = target: Nucleotide-binding oligomerization domain-containing protein 2 (Homo sapiens, UniProt Q9HC29); test: NOD2 signaling inhibitors, cell-based, luminescence, uHTS, HEK293 (AID 1566); type: functional

Compound: CS(=O)(=O)c1nc(-c2ccc(Br)cc2)cc(-c2ccccc2)c1C#N
EC50 [1]: 7.5 µM (active)
AC50 [2]: 6.77 µM (active)
IC50 [3]: 2.07 µM (active)
AC50 [4]: 4.72 µM (active)
EC50 [5]: > 79.4 µM (not active)
EC50 [6]: 8.09 µM (active)

AC50 (Cytochrome P450 3A4): inconclusive
Compound: CCCCOC(=S)NC(=O)c1sc2ccccc2c1Cl

Compound: CC1CCN(S(=O)(=O)c2cccc(C(=O)NCc3cccs3)c2)CC1
AC50 (Escherichia coli [7]): 40.9 µM (active)
AC50 (Escherichia coli [8]): 106 µM (active)
EC50 [9]: 2.96 µM (active)

IC50 (Coagulation factor XII): > 50 µM (inactive)
Compound: CCOC(=O)c1sc2ncnc(N3CCN(C(=O)OCC)CC3)c2c1C

IC50 (Coagulation factor XII): > 50 µM (inactive)
Compound: C=CCn1c(COc2ccc(CC)cc2)nnc1SCC(=O)N(C)C1CCS(=O)(=O)C1 (stereo not given)

AC50 (Cytochrome P450 3A4): inconclusive
Compound: OC[C@@H]1O[C@@H](n2cnc3cncnc32)[C@@H](O)[C@H]1O

EC50 [1]: 13 µM (inactive)
EC50 [5]: > 79.4 µM (not active)
EC50 [6]: 10 µM (not active)
Compound: COc1cc2oc(=O)c(Br)c(C)c2c(OC)c1OC

IC50 (Coagulation factor XII): > 50 µM (inactive)
Compound: CCN(CC)S(=O)(=O)c1ccc(C(=O)NCC(c2cccs2)N2CCOCC2)cc1 (stereo not given)

IC50 [10]: > 100 µM (inactive)
IC50 [11]: > 100 µM (not active)
IC50 [12]: > 100 µM (inactive)
Compound: Nc1nc(Cc2cccc(Br)c2)n(-c2ccccc2)n1

AC50 (Cytochrome P450 3A4): inconclusive
AC50 (Cytochrome P450 2D6): 22.4 µM (inconclusive)
Compound: C=CCNS(=O)(=O)c1cccc2cc(C(=O)O)c(O)cc12

IC50 [10]: > 100 µM (inactive)
IC50 [11]: > 100 µM (not active)
IC50 [12]: > 100 µM (inactive)
Compound: COc1ccc(-c2nnc3oc(O)c(CCO)c(C)c2-3)cc1

IC50 [10]: 1.56 µM (active)
IC50 [12]: 6.71 µM (active)
Compound: Cc1cc(C)c(C#N)c(SCC(=O)c2ccc(O)c(O)c2)n1

IC50 [13]: 14.2 µM (active)
IC50 (Bcl-2-related protein A1): > 20 µM (inactive)
IC50 [14]: 6.38 µM (active)
Compound: CCCN1CCN(C(=O)C2CCN(c3ncnc4c3nc3n4CCCCC3)CC2)CC1

Compound: N=C(N)N/N=C/c1ccc(OCc2ccc(Cl)cc2)cc1
EC50 [15]: > 60 µM (inconclusive)
IC50 [13]: 13 µM (active)
IC50 (Beta-galactosidase): > 66.6 µM (inactive)
EC50 [16]: > 150 µM (inactive)
EC50 [17]: 1.93 µM (active)
IC50 (Bcl-2-related protein A1): > 20 µM (inactive)
EC50 [18]: 3.25 µM (active)
EC50 [19]: > 38 µM (not active)
EC50 [20]: 3.74 µM (active)
IC50 [14]: 12.4 µM (active)

Compound: CC(/C=C/c1ccccc1)=N/NC(=O)c1cccc(Br)c1
IC50 (HEK293 [21]): > 20 µM (inactive)
IC50 (HEK293 [22]): > 20 µM (inactive)
EC50 (HEK293 [23]): 3.65 µM (active)
IC50 (Beta-galactosidase): > 66.6 µM (inactive)
IC50 (HEK293 [24]): > 20 µM (inactive)
IC50 (HEK293 [25]): 2.7 µM (active)
EC50 [26]: > 20 µM (inactive)

EC50 [1]: > 79.4 µM (inactive)
EC50 [5]: > 79.4 µM (not active)
EC50 [6]: 47.6 µM (not active)
Compound: Cc1ccccc1-c1ccc(/C=N/c2c(C)n(C)n(-c3ccccc3)c2=O)o1
